From US11999806B2, “Broad-spectrum polypeptide against enterovirus and application thereof” (WUHAN INSTITUTE OF VIROLOGY, CHINESE ACADEMY OF SCIENCES, priority 2018, dated 2024)
“And” between values parts separate entries of the source, which are not always exact repeats. Identical values can stand only once. No end group written: not given here.

Legend:
EV71 = experiment: Anti-EV71 efficiency in RD cells, viral RNA by qRT-PCR; type: cell-based, enterovirus 71; details: 24 h, control infected without polypeptide
Experimental: • (1) RD cells were plated in five 100 mm dishes. • (2) After the cells reached 70%-80% confluence, the MEM medium containing 10% serum was replaced with a MEM medium containing 2% serum. […] When the changes were obvious, samples were collected as follows. • (4) The supernatant in the 100 mm dish was transferred into a 15 ml centrifuge tube, and centrifuged at 500 g for 5 min. • (5) The supernatant was transferred into a new 15 ml centrifuge tube, and filtered through 0.22 μm filter membrane with a 50 ml syringe. • (6) RNA was extracted from 100 μl of the supernatant obtained in step (5) and subjected to one step qRT-PCR to measure the virus titer, and the previously extracted virus RNA with known titer was handled together as a control. 3. Measure Antiviral Efficiency of Polypeptide in RD Cells. • (1) Different cells were plated in 24-well cell plates. • (2) After the cells reached 70%-80% confluence, the MEM medium containing 10% serum was replaced with a MEM medium containing 2% serum (0.5 ml/well), and 5 μl of 10^6 PFU/mL EV71 viruses per well were added. • (3) After 1 h, different polypeptides were added at a final concentration of 0.01 μM, 0.1 μM, 1 μM, 10 μM, and 50 μM, respectively. • (4) Samples were collected 24 hours after virus infection, and RNA was extracted with total RNA extraction kit as follows. • (5) The supernatant in the wells was discarded, then 350 μl of TRK Lysis Buffer was added to each well and the plate was shaken on the shaker for 5 minutes. • (6) 350 μl of 70% ethanol (DEPC-treated) was added to the well and the plate was shaken on the shaker for 5 minutes. • (7) The mixture in the well was transferred to a RNA extraction column and centrifuged at 12,000 g for 1 min. • (8) The solution collected in the recovery tube was added back to the column and centrifuged at 12,000 g for 1 min. • (9) RNA washing buffer 1 was added to the column and centrifuged at 12,000 g for 30 s. • (10) RNA washing buffer 2 was added to the column and centrifuged at 12,000 g for 1 min. • (11) Step (10) was repeated once. • (12) The column was centrifuged at 12000 g for 2 min to completely remove residual RNA washing buffer. • (13) 50 μl DEPC-treated H2O was added to the column and centrifuge at 12,000 g for 2 min. • (14) 2 μl RNA sample was used according to one step qRT-PCR kit for fluorescence quantification experiment.
RD cells added with R8 penetrating peptide (sequence: RRRRRRRR) were used as a negative control.
RD cells were used to test the antiviral effect of polypeptide P2. EV71 (MOI=0.1) was added to RD cells at 80% confluence. After 1 hour of infection, polypeptide P2 was added at concentrations of 0.01 μM, 0.1 μM, 1 μM, 10 μM, and 50 μM, respectively. The samples were collected 24 hours later, and the total RNA was extracted. The level of viral genomic RNA was detected by qRT-PCR. The cells infected with the same type virus and added with penetrating peptide R8 were used as a control group.
• (1) RD cells were plated in five 100 mm dishes. • (2) After the cells reached 70%-80% confluence, the MEM medium containing 10% serum was replaced with a MEM medium containing 2% serum. […] When the changes were obvious, samples were collected as follows. • (4) The supernatant in the 100 mm dish was transferred into a 15 ml centrifuge tube, and centrifuged at 500 g for 5 min. • (5) The supernatant was transferred into a new 15 ml centrifuge tube, and filtered through 0.22 μm filter membrane with a 50 ml syringe. • (6) RNA was extracted from 100 μl of the supernatant obtained in step (5) and subjected to one step qRT-PCR to measure the virus titer, and the previously extracted virus RNA with known titer was handled together as a control. 3. […]

RD cells = experiment: Cytotoxicity by CCK-8 in RD cells; type: cell-based; details: RD cells; for Cell viability (%): 24 h, untreated = 100%; for cytotoxicity, result in words: CCK-8, 24 h
Experimental: (§1) The experiment was performed as follows. • (1) RD cells were plated in a 96-well plate at 100 μl per well. • (2) After the cells reached 70%-80% confluence, the MEM medium containing 10% serum was replaced with a MEM medium containing 2% serum. Then, polypeptide P2 was added to generate gradient concentrations of 0.01 μM, 0.1 μM, 1 μM, 10 μM, and 100 μM (final concentration), respectively. • (3) The test was performed 24 hours after the addition of the polypeptide, and 10 μl of viable cell detection reagent CCK-8 was added to each well and mixed well. • (4) The plate was incubated at 37° C. for 2 h. • (5) The absorbance value at OD450 was measured with a microplate reader.
as §1, with “P1” for “P2”, “concentrations),” for “concentration),”
(§2) RD cells were used to test the antiviral effect of polypeptide P1. When RD cells reached 80% confluence, polypeptide P1 was added at concentrations of 0 μM (control group), 0.01 μM, 0.1 μM, 1 μM, 10 μM, and 100 μM, respectively. Three parallel wells were used for each concentration. The test was carried out 24 hours later, and the cell viability was detected using the CCK-8 kit.
as §1, with “3A-TAT-EP” for “P2”, “concentrations),” for “concentration),”
as §2, with “3A-TAT-EP.” for “P1.”, “3A-TAT-EP” for “P1”
as §1, with “Then, 3A-EP-DRI or 3A-EP-PEG4-PA” for “Then, polypeptide P2”, “and 50” for “and 100”, “(final concentrations),” for “(final concentration),”
as §2, with “polypeptides 3A-EP-DRI and 3A-EP-PEG4-PA.” for “polypeptide P1.”, “3A-EP-DRI or 3A-EP-PEG4-PA” for “P1”, “50” for “100”, “kit. […]” for “kit.”

[1] = Cytotoxicity by CCK-8 in RD cells; type: cell-based; details: human; for viability at 24 h, 0.01 µM: 0.01 μM polypeptide; for viability at 24 h, 0.01 µM / viability at 24 h, 0.1 µM / viability at 24 h, 1 µM / viability at 24 h, 10 µM / viability at 24 h, 100 µM: untreated = 100%, read-out: Cell viability (%); for viability at 24 h, 0.1 µM: 0.1 μM polypeptide; for viability at 24 h, 1 µM: 1 μM polypeptide; for viability at 24 h, 10 µM: 10 μM polypeptide; for viability at 24 h, 100 µM: 100 μM polypeptide; for CC50 at 24 h: Table 1 summary, cell line not given, read-out: CC50
Experimental: as §1
as §1, with “P1” for “P2”, “concentrations),” for “concentration),”
as §2
as §1, with “3A-TAT-EP” for “P2”, “concentrations),” for “concentration),”
as §2, with “3A-TAT-EP.” for “P1.”, “3A-TAT-EP” for “P1”
as §1, with “Then, 3A-EP-DRI or 3A-EP-PEG4-PA” for “Then, polypeptide P2”, “and 50” for “and 100”, “(final concentrations),” for “(final concentration),”
as §2, with “polypeptides 3A-EP-DRI and 3A-EP-PEG4-PA.” for “polypeptide P1.”, “3A-EP-DRI or 3A-EP-PEG4-PA” for “P1”, “50” for “100”, “kit. […]” for “kit.”

| Compound | Relative viral RNA amount (%) (EV71; EV71 MOI=0.1, 0.01 μM) | Relative viral RNA amount (%) (EV71; EV71 MOI=0.1, 0.1 μM) | Relative viral RNA amount (%) (EV71; EV71 MOI=0.1, 1 μM) | Cell viability (%) (RD cells; 0.01 μM polypeptide) | Cell viability (%) (RD cells; 0.1 μM polypeptide) | Cell viability (%) (RD cells; 1 μM polypeptide) | Cell viability (%) (RD cells; 10 μM polypeptide) | Cell viability (%) (RD cells; 100 μM polypeptide) | cytotoxicity, result in words (RD cells) | viability at 24 h, 0.01 µM ([1]; RD cells) | viability at 24 h, 0.1 µM ([1]; RD cells) | viability at 24 h, 1 µM ([1]; RD cells) | viability at 24 h, 10 µM ([1]; RD cells) | viability at 24 h, 100 µM ([1]; RD cells) | CC50 at 24 h [1] | Relative viral RNA amount (%) (EV71; EV71 MOI=0.1, 10 μM) | viability at 24 h ([1]; RD cells, Cell viability (%)) |
| --- | --- | --- | --- | --- | --- | --- | --- | --- | --- | --- | --- | --- | --- | --- | --- | --- | --- |
| CCCCCCCCCCCCCCCC(=O)NCCCC[C@H](NC(=O)CCNC(=O)[C@@H]1CCCN1C(=O)[C@@H](NC(=O)[C@@H](NC(=O)[C@H](Cc1c[nH]c2ccccc12)NC(=O)CNC(=O)[C@H](CCC(N)=O)NC(=O)[C@H](CCC(=O)O)NC(=O)[C@H](CCCNC(=N)N)NC(=O)[C@H](CS)NC(=O)[C@H](Cc1ccc(O)cc1)NC(=O)[C@H](CCC(N)=O)NC(=O)[C@H](CCCNC(=N)N)NC(=O)[C@@H](NC(=O)[C@H](CCC(=O)O)NC(=O)[C@@H](N)CCC(=O)O)C(C)C)[C@@H](C)CC)[C@@H](C)CC)C(=O)O [EP-PA] | 83.07% and 76.47% and 56.74% | 79.01% and 67.55% and 53.7% | 86.29% and 75.98% and 56.91% |  |  |  |  |  |  |  |  |  |  |  |  |  |  |
| RRRRRRRRAISDLLAS [P1] |  |  |  | 98.82% and 106.3% | 104.9% and 99.14% | 105.5% and 102.9% | 107.1% and 98.61% | 97.06% and 98.38% | not toxic to cells within 100 μM | 103% | 106% | 103% | 103% | 100% | > 100 µM |  |  |
| CC[C@H](C)[C@H](NC(=O)[C@H](Cc1c[nH]c2ccccc12)NC(=O)CNC(=O)[C@H](CCC(N)=O)NC(=O)[C@H](CCC(=O)O)NC(=O)[C@H](CCCNC(=N)N)NC(=O)[C@H](CS)NC(=O)[C@H](Cc1ccc(O)cc1)NC(=O)[C@H](CCC(N)=O)NC(=O)[C@H](CCCNC(=N)N)NC(=O)[C@@H](NC(=O)[C@H](CCC(=O)O)NC(=O)[C@H](CCC(=O)O)NC(=O)CNC(=O)[C@H](CO)NC(=O)CNC(=O)[C@H](CCCNC(=N)N)NC(=O)[C@H](CCCNC(=N)N)NC(=O)[C@H](CCCNC(=N)N)NC(=O)[C@H](CCC(N)=O)NC(=O)[C@H](CCCNC(=N)N)NC(=O)[C@H](CCCNC(=N)N)NC(=O)[C@H](CCCCN)NC(=O)[C@H](CCCCN)NC(=O)[C@H](CCCNC(=N)N)NC(=O)CNC(=O)[C@@H](N)Cc1ccc(O)cc1)C(C)C)C(=O)N[C@H](C(=O)N1CCC[C@H]1C(=O)O)[C@@H](C)CC [3A-TAT-EP] |  |  |  | 98.82% and 106.3% | 104.9% and 99.14% | 105.5% and 102.9% | 107.1% and 98.61% | 97.06% and 98.38% | not toxic to cells within 100 μM | 103% | 106% | 103% | 103% | 100% | > 100 µM |  |  |
| EP-CHOL: SEQ ID NO: 9, EEVRQYCREQGWIIP-AK-cholesterol (Chol) | 75.49% and 59.54% and 59.75% | 75.76% and 70.99% and 60.98% | 96.78% and 76.07% and 59.55% |  |  |  |  |  |  |  |  |  |  |  |  | 39.12% and 66.18% and 37.09% |  |
| N=C(N)NCCC[C@H](NC(=O)[C@H](CCCNC(=N)N)NC(=O)[C@H](CCCNC(=N)N)NC(=O)[C@H](CCCNC(=N)N)NC(=O)[C@H](CCCNC(=N)N)NC(=O)[C@H](CCCNC(=N)N)NC(=O)[C@H](CCCNC(=N)N)NC(=O)[C@@H](N)CCCNC(=N)N)C(=O)O [R8, reference compound] |  |  |  |  |  |  |  |  |  |  |  |  |  |  |  |  | 104% |
